Measurements taken from patent US20230106032A1, “IMIDAZOTRIAZINES ACTING ON CANCER VIA INHIBITION OF CDK12” (Bayer Aktiengesellschaft, priority 2020, published 2023).

Tests used:
[1] = molecular target: T1, CDK9/CycT1 (Homo sapiens, UniProt P50750); assay: CDK9/CycT1 high ATP kinase assay (TR-FRET, 2 mM ATP); type: biochemical; conditions: read-out: CDK9/CyclinT1, 2 mM ATP (high ATP) IC50-[mol/l] (median)
T1 construct: Recombinant full-length His-tagged human CDK9 and CycT1, expressed in insect cells; His; purchased Life Technologies PV4131; host or cells: insect cells
Protocol: CDK9/CycT1-inhibitory activity of compounds of the present invention at a high ATP concentration after preincubation of enzyme and test compounds was quantified employing the CDK9/CycT1 TR-FRET assay as described in the following paragraphs.
Recombinant full-length His-tagged human CDK9 and CycT1, expressed in insect cells and purified by Ni-NTA affinity chromatography, were purchased from Life Technologies (Cat. No PV4131). As substrate for the kinase reaction biotinylated peptide biotin-Ttds-YISPLKSPYKISEG (C-terminus in amide form) was used which can be purchased e.g. form the company JERINI peptide technologies (Berlin, Germany).
For the assay 50 nanoL of a 100 fold concentrated solution of the test compound in DMSO was pipetted into either a black low volume 384 well microtiter plate or a black 1536 well microtiter plate (both Greiner Bio-One, Frickenhausen, Germany), 2 microL of a solution of CDK9/CycT1 in aqueous assay buffer [50 millimol/L Tris/HCl pH 8.0, 10 millimol/L MgCl2, 1.0 millimol/L dithiothreitol, 0.1 millimol/L sodium ortho-vanadate, 0.01% (v/v) Nonidet-P40 (Sigma)] were added and the mixture was incubated for 15 min at 22° C. to allow pre-binding of the test compounds to the enzyme before the start of the kinase reaction. Then the kinase reaction was started by the addition of 3 microL of a solution of adenosine-tri-phosphate (ATP, 3.3 millimol/L=> final conc. in the 5 microL assay volume is 2 millimol/L) and substrate (1.25 micromol/L=> final conc. in the 5 microL assay volume is 0.75 micromol/L) in assay buffer and the resulting mixture was incubated for a reaction time of 25 min at 22° C. The concentration of CDK9/CycT1 was adjusted depending of the activity of the enzyme lot and was chosen appropriate to have the assay in the linear range, typical concentrations were in the range of 0.5 microg/ml. The reaction was stopped by the addition of 3 microL of a solution of TR-FRET detection reagents (0.33 micromol/L streptavidine-XL665 [Cisbio Bioassays, Codolet, France] and 1.67 nanomol/L anti-RB(pSer807/pSer8l 1)-antibody from BD Pharmingen [#558389] and 2 nanomol/L LANCE EU-W1024 labeled anti-mouse IgG antibody [Perkin-Elmer, product no. AD0077]) in an aqueous EDTA-solution (167 millimol/L EDTA, 0.2% (w/v) bovine serum albumin in 100 millimol/L HEPES pH 7.5).
The resulting mixture was incubated 1 h at 22° C. to allow the formation of complex between the phosphorylated biotinylated peptide and the detection reagents. Subsequently the amount of phosphorylated substrate was evaluated by measurement of the resonance energy transfer from the Eu-chelate to the streptavidine-XL. Therefore, the fluorescence emissions at 620 nm and 665 nm after excitation at 350 nm was measured in a TR-FRET reader, e.g. a Pherastar (BMG Labtechnologies, Offenburg, Germany) or a Viewlux (Perkin-Elmer). The ratio of the emissions at 665 nm and at […] was taken as the measure for the amount of phosphorylated substrate. The data were normalised (enzyme reaction without inhibitor=0% inhibition, all other assay components but no enzyme=100% inhibition).

[2] = system: CAL-120 human breast adenocarcinoma cells; assay: Proliferation assay CAL-120 (crystal violet); type: cell-based; conditions: 96 h, CAL-120 cells, 4 days, read-out: Prolif-CAL-120_ IC50-[mol/l] (median)
Protocol: (§1) Human tumour cells were originally obtained from the American Type Culture Collection (ATCC), or from the Deutsche Sammlung von Mikroorganismen und Zellkulturen (DSMZ, German Collection of Microorganisms and Cell Cultures). Cultivated tumour cells (CAL-120, human breast adenocarcinoma cells, DSMZ ACC-459; MDA-MB-231, human breast cancer cells, ATCC HTB-26) were plated at a density of 4,000 cells/well in a 96-well multititer plate in 200 microL of their respective growth medium supplemented 10% fetal calf serum. After 24 hours, the cells of one plate (zero-point plate) were stained with crystal violet (see below), while the medium of the other plates was supplemented with the test substances in various concentrations (0 micromol/L, as well as in the range of 0.01-10 micromol/L; the final concentration of the solvent dimethyl sulfoxide was adjusted to 0.1%) using a Tecan HP D300 Digital Dispenser. The cells were incubated for 4 days in the presence of test substances. Cell proliferation was determined by staining the cells with crystal violet: the cells were fixed by adding 20 microL/measuring point of an 11% glutaric aldehyde solution for 15 minutes at room temperature. After three washing cycles of the fixed cells with water, the plates were dried at room temperature. The cells were stained by adding 100 microL/measuring point of a 0.1% crystal violet solution (pH 3.0). After three washing cycles of the stained cells with water, the plates were dried at room temperature. The dye was dissolved by adding 100 microL/measuring point of a 10% acetic acid solution. The extinction was determined by photometry at a wavelength of 595 nm. The change of cell number, in percent, was calculated by normalization of the measured values to the extinction values of the zero-point plate (=0%) and the extinction of the untreated (0 μM) cells (=100%). The IC50 values (inhibitory concentration at 50% of maximal effect) were determined by means of a 4 parameter fit.

[3] = system: MDA-MB-231 human breast cancer cells; assay: Proliferation assay MDA-MB-231 (crystal violet); type: cell-based; conditions: 96 h, MDA-MB-231 cells, 4 days, read-out: Prolif-MDA MB231 IC50-[mol/l] (median)
Protocol: as §1

[4] = system: BRCA1 mRNA expression in MDA-MB-231 cells; assay: qRT-PCR assay: inhibition of BRCA1 mRNA expression in MDA-MB-231 cells; type: cell-based; conditions: Homo sapiens, 24 h exposure, normalised to GAPDH, read-out: RTqPCR-MDA-MB-231 IC50 [mol/l] BRCA1 (median)
Protocol: Tissue cultured human MDA-MB-231 human breast cancer cells were plated in 500 microL per well at 200,000 cells/well in a 24 well microtiter plate. After 24 h, the cells were exposed continuously for 24 h to test substances (substances were added with Tecan HP D300 Dispenser). RNA was prepared using Qiagen RNeasy MiniKit (#74106), RNA was quantified using a NanoDrop Equipment, and 600 nano gamms of RNA was converted to cDNA using a SuperScript VILO kit (Thermofisher #11755050) followed by qPCR amplification. BRCA1 and ATR gene expression was measured by RT-qPCR and normalised to GAPDH housekeeping gene expression. qPCR primer sets have been purchased from Thermo Fisher Scientific/Applied Biosystems: BRCA1, #Hs 01556193; ATR, #Hs 00992123; GAPDH, #Hs 03929097.

T1 sequence (P50750 whole entry): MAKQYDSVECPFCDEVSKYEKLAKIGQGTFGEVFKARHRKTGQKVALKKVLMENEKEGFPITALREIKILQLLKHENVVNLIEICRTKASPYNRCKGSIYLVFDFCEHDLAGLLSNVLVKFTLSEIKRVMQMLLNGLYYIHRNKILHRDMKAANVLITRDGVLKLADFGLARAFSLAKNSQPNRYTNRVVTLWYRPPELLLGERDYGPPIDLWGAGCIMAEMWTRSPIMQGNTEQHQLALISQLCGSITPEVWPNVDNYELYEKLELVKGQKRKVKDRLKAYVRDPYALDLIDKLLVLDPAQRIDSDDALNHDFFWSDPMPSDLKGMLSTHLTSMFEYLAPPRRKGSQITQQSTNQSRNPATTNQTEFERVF
T1 sequence (O60563 whole entry partner): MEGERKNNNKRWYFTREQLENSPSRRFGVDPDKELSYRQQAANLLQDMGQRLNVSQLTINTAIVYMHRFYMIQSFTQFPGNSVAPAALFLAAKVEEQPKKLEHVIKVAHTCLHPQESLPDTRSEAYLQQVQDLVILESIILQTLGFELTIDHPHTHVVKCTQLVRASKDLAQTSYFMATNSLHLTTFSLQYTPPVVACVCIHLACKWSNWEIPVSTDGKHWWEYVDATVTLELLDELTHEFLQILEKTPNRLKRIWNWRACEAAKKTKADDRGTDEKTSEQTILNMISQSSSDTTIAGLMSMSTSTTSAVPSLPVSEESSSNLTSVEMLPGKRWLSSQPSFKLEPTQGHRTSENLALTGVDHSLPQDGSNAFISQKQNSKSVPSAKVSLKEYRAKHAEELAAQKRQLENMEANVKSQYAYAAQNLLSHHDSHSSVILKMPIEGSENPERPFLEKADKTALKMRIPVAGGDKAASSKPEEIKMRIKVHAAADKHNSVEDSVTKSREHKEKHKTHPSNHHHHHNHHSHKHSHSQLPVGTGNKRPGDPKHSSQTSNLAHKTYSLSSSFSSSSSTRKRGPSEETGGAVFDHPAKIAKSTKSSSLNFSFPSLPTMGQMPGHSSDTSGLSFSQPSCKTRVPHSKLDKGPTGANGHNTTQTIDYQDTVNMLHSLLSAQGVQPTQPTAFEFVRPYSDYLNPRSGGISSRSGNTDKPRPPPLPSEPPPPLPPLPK

In the case of `CN(CC(C)(C)O)c1nc(NCc2nc3ccccc3[nH]2)c2ncc(C(F)(F)F)n2n1` [Example 30, 1-[{4-[(1H-benzimidazol-2-ylmethyl)amino]-7-(trifluoromethyl)imidazo[2,1-f][1,2,4]triazin-2-yl}(methyl)amino]-2-methylpropan-2-ol], the IC50 [1] is reported as 10800 nM, the IC50 [2] is reported as 9.95 nM and the IC50 [3] is reported as 17.3 nM. The IC50 [4] was 7.23 nM.
